Source: ChEMBL document CHEMBL1201862, “PubChem BioAssay data set” (2004)
The source made the active and inactive calls.

Key:
[1] = biological target: T1, Voltage-gated N-type calcium channel alpha-1B subunit/Amyloid beta A4 precursor protein-binding family A member 1 (Homo sapiens, UniProt Q00975+Q02410); assay type: protein assay
[2] = biological target: Glyceraldehyde-3-phosphate dehydrogenase (Homo sapiens, UniProt P04406)
[3] = biological target: T2, Tyrosine-protein phosphatase non-receptor type 22 (Homo sapiens, UniProt Q9Y2R2); assay: LYP (PTPN22) phosphatase inhibitor potency, SAR follow-up, biochemical, pCAP fluorogenic substrate, fluorescence, set 3 (AID 449727); assay type: functional
T2 sequence (Q9Y2R2 whole entry): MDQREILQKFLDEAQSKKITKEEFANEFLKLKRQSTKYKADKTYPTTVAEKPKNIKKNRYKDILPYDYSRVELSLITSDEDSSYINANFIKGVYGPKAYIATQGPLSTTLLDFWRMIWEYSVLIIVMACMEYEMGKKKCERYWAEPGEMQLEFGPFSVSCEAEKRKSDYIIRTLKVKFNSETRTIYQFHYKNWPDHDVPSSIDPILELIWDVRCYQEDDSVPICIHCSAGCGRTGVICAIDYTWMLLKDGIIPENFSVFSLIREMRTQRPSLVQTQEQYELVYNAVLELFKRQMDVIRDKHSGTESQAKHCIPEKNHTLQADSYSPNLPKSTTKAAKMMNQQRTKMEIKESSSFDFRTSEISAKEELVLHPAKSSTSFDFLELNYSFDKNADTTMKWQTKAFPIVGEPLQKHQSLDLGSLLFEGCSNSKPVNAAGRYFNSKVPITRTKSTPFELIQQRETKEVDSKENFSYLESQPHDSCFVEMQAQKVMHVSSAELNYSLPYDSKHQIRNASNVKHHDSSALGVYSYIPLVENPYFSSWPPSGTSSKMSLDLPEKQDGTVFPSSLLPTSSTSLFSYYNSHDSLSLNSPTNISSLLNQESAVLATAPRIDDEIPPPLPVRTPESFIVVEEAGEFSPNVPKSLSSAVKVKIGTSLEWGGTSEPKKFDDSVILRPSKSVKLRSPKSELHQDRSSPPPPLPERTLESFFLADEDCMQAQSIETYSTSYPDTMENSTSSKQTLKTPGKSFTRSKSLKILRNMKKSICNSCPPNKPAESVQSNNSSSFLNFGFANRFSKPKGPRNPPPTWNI

[4] = biological target: NS3 (Hepatitis C virus, UniProt A3EZJ3); assay: PubChem AID 2173; design: species or system Hepacivirus hominis
[5] = biological target: T3, Dual specificity protein phosphatase 3 (Homo sapiens, UniProt P51452); assay: VHR1 phosphatase inhibitors, primary screen, biochemical, absorbance, uHTS (AID 1654)
[6] = biological target: Dual specificity protein phosphatase 6 (Rattus norvegicus, UniProt Q64346); assay: MKP-3 phosphatase inhibitors, primary screen, biochemical, rat enzyme, in vitro (AID 425)
[7] = biological target: T3, Dual specificity protein phosphatase 3; assay: VHR1 phosphatase inhibitors, biochemical (AID 1878)
[8] = biological target: T2, Tyrosine-protein phosphatase non-receptor type 22; assay: SAR LYP1 Fluorescent Assay using OMFP substrate for In Vitro dose response studies - Set 3. [Related pubchem assays (depositor defined):AID1779, AID1784, AID2140, AID2686]; assay type: functional
[9] = biological target: T1, Voltage-gated N-type calcium channel alpha-1B subunit/Amyloid beta A4 precursor protein-binding family A member 1; assay type: protein assay; remark: listed apart in the source
[10] = biological target: Tyrosine-protein phosphatase non-receptor type 12 (Homo sapiens, UniProt Q05209); assay: SAR Selectivity Analysis of small molecule inhibitors of PEST using pCAP in a fluorescence assay. [Related pubchem assays (depositor defined):AID1779, AID1784, AID2135]; assay type: functional
[11] = biological target: T4, Tyrosine-protein phosphatase non-receptor type 7 (Homo sapiens, UniProt P35236); assay: HePTP (PTPN7) phosphatase inhibitor potency, SAR follow-up, biochemical, set 2 (AID 449736); assay type: functional
T4 sequence (P35236 whole entry): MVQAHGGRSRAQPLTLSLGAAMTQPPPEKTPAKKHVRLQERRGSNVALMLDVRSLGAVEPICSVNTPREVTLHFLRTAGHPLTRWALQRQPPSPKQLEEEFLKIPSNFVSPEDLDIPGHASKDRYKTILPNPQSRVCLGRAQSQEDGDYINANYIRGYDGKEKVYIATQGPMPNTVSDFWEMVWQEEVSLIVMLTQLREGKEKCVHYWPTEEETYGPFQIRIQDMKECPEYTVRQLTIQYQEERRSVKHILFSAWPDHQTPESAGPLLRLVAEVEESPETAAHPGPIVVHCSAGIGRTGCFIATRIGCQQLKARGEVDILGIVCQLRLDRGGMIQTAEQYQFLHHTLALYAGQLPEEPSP

[12] = biological target: Protein Rev (Human immunodeficiency virus type 1 group M subtype B (isolate HXB2)(HIV-1), UniProt P04618); assay: inhibitors of Rev binding to RRE RNA, dose response, biochemical, fluorescence polarization, HIV-1 (AID 434976); design: species or system Human immunodeficiency virus 1
[13] = biological target: UDP-galactopyranose mutase (Mycobacterium tuberculosis, UniProt P9WIQ1); assay: Inhibitors of Mycobacterium tuberculosis UDP-galactopyranose mutase (UGM) enzyme Measured in Biochemical System Using Plate Reader - 2105-02_Inhibitor_Dose_CherryPick_Activity. [Related pubchem assays (depositor defined):AID504439]
[14] = biological target: ORF 73 (Human herpesvirus 8, UniProt O40947); assay: inhibitors of C-LANA binding to LBS DNA, dose response, biochemical, fluorescence polarization, cherry-picked samples (AID 504725); design: species or system Human gammaherpesvirus 8;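 note: fluorescence polarization of a labeled DNA duplex reporting LANA DNA binding; potency is for inhibitors that block LANA binding to the DNA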
[15] = biological target: Keap1/Nrf2 (Homo sapiens, UniProt Q14145); assay: Keap1-Nrf2 protein-protein interaction inhibitors, dose response, biochemical, fluorescence polarization, cherry-picked samples (AID 588683)
[16] = biological target: Female germline-specific tumor suppressor gld-1 (Caenorhabditis elegans, UniProt Q17339); assay: inhibitors of GLD-1 binding to TGE RNA, dose response, biochemical, fluorescence polarization, C. elegans (AID 2802);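 note: fluorescence polarization of labeled TGE RNA bound by purified gld-1 protein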
[17] = biological target: T5, Delta-type opioid receptor (Homo sapiens, UniProt P41143); assay: DOR agonists, SAR follow-up, image-based (AID 2370); assay type: functional
[18] = biological target: T5, Delta-type opioid receptor; assay: DOR antagonists, SAR follow-up, image-based (AID 2357); assay type: functional
[19] = biological target: T6, Kappa-type opioid receptor (Homo sapiens, UniProt P41145); assay: KOR antagonists by imaging, SAR follow-up, image-based (AID 2348); assay type: functional
[20] = biological target: T6, Kappa-type opioid receptor; assay: SAR analysis of small molecule agonists of the kappa opioid receptor via a luminescent beta-arrestin assay. [Related pubchem assays (depositor defined):AID1777, AID1786, AID1966, AID2133, AID2136, AID2348, AID2352, AID2357, AID2359, AID2370, AID2420, AID2478, AID2491, AID2492, AID2493, AID2497, AID2498, AID2500, AID449737, AID488822, AID488842]; assay type: functional
[21] = biological target: T6, Kappa-type opioid receptor; assay: KOR agonist analogs, imaging readout, SAR follow-up, image-based (AID 2359); assay type: functional
[22] = biological target: T7, Mu-type opioid receptor (Homo sapiens, UniProt P35372); assay: MOR agonists by imaging, SAR follow-up, image-based (AID 2352); assay type: functional
[23] = biological target: T7, Mu-type opioid receptor; assay: MOR antagonists, SAR follow-up, image-based (AID 2420); assay type: functional;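 note: compounds added before stimulation of receptor with agonist DAMGO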
[24] = biological target: CAAX prenyl protease 1 (Saccharomyces cerevisiae S288c, UniProt P47154); assay: Ste24 protease inhibitors, dose response, biochemical, S. cerevisiae, plate reader, cherry-pick (AID 488815)

T6 sequence (P41145 whole entry): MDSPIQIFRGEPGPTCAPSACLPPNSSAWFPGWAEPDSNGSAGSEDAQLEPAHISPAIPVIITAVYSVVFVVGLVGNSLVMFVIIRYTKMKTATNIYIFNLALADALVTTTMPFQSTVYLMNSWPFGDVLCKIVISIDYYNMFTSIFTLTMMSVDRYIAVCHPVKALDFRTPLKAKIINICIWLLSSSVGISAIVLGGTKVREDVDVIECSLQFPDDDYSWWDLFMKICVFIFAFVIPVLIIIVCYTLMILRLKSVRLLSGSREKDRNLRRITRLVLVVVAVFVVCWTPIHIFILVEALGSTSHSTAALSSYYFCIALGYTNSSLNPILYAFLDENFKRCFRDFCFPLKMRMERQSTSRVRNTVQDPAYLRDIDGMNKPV
T7 sequence (P35372 whole entry): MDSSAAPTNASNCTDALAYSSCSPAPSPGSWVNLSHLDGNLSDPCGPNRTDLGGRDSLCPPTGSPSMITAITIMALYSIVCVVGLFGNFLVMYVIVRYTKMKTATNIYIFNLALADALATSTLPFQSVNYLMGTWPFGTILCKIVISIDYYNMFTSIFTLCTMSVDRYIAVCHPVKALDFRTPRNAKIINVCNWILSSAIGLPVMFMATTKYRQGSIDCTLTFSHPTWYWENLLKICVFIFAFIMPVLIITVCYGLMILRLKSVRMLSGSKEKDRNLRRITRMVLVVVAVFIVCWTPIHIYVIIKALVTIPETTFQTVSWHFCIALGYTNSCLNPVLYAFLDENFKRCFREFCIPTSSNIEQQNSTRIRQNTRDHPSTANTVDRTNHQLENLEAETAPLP
T3 sequence (P51452 whole entry): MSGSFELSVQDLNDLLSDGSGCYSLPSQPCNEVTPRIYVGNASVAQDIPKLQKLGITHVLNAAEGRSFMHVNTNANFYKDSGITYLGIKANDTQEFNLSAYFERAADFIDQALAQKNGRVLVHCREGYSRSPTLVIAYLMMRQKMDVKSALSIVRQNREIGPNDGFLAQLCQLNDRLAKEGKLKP
T5 sequence (P41143 whole entry): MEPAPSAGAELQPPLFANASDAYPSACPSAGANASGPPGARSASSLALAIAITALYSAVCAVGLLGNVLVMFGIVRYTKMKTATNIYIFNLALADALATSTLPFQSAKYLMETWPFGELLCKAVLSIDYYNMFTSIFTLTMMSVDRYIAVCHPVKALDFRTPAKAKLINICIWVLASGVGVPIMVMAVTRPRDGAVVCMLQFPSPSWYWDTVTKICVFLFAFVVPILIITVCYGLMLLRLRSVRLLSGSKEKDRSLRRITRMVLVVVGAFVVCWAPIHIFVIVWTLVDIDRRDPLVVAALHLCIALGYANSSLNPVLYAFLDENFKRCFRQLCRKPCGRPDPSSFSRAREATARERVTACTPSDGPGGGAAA
T1 sequence (Q00975 whole entry): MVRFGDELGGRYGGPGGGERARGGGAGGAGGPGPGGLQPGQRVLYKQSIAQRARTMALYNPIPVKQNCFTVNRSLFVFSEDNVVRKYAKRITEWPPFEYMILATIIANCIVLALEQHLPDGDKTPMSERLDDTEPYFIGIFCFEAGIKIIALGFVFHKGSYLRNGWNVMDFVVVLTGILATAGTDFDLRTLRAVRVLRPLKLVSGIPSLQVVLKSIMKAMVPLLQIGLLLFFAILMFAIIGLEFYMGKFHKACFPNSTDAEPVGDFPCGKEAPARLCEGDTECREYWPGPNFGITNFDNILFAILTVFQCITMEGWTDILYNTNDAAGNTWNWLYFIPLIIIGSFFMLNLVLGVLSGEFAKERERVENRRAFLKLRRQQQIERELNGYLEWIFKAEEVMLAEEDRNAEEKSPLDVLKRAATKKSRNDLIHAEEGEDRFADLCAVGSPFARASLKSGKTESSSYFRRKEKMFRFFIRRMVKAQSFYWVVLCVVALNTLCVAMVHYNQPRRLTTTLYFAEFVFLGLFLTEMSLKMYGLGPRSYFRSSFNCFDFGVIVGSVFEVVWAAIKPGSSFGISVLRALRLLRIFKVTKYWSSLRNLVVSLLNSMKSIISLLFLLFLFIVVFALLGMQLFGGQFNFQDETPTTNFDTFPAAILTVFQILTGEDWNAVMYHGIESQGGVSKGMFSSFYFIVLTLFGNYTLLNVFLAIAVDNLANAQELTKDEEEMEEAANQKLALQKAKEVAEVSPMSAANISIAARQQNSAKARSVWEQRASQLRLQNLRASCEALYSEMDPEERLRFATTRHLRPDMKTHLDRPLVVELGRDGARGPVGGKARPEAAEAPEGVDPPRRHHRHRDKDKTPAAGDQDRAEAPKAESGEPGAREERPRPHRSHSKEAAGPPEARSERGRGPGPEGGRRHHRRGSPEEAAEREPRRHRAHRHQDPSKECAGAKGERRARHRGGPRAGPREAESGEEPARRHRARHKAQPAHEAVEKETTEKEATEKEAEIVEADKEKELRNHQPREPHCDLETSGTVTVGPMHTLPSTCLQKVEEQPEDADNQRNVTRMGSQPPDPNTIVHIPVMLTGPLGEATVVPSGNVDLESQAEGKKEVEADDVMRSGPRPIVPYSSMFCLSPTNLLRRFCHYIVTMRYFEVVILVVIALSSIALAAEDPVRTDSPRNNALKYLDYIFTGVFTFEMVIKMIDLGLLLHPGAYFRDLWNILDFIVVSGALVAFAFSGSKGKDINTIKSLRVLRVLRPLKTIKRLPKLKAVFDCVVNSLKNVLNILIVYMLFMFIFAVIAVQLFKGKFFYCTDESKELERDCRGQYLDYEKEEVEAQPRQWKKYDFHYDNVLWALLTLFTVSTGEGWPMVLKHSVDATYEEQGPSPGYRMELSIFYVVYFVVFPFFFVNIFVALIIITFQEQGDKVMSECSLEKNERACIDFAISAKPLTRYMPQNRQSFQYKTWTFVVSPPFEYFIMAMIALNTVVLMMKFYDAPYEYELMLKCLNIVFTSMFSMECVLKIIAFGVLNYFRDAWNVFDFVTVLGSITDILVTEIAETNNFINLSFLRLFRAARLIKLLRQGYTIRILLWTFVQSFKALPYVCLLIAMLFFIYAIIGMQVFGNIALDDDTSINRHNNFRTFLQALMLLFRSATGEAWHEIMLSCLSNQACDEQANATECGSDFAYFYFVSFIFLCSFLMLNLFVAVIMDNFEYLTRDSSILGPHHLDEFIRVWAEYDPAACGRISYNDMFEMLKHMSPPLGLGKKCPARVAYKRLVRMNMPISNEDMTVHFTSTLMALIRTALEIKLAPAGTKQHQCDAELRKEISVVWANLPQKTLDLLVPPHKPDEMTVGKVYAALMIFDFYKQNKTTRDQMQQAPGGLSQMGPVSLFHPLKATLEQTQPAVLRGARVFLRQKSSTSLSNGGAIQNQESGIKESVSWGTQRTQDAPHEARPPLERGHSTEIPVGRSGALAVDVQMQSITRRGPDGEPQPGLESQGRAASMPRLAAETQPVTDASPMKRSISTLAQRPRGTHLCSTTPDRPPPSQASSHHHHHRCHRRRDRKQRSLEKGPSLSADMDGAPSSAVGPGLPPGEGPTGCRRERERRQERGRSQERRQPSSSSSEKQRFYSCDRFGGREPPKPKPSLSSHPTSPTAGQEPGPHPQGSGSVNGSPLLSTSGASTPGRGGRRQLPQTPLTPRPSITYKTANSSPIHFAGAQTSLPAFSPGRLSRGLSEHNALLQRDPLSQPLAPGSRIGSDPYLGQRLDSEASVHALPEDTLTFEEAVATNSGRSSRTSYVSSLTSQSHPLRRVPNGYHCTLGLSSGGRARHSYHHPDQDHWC
T1 sequence (Q02410 whole entry): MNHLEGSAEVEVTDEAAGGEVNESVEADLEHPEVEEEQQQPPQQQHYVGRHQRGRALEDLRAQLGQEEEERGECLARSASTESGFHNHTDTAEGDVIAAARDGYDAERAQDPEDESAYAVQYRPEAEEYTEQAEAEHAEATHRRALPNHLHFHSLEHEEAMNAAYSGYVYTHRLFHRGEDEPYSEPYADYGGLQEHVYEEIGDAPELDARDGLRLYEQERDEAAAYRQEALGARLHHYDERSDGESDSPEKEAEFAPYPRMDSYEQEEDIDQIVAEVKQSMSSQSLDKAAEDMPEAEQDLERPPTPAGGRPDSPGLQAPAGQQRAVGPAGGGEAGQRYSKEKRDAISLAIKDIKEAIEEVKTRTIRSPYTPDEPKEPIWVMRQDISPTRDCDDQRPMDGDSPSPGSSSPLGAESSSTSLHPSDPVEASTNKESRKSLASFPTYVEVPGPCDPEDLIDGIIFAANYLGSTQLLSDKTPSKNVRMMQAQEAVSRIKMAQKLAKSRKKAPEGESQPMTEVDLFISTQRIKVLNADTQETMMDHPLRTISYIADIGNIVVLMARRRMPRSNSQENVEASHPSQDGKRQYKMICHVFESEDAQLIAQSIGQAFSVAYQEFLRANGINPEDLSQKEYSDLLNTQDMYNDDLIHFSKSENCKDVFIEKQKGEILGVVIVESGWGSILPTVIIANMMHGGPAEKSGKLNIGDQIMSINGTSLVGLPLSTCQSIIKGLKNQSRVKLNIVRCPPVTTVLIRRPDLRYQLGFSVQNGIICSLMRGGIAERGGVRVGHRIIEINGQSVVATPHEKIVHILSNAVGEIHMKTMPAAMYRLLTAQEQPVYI
Sequence of Dual specificity protein phosphatase 6 (Q64346 whole entry): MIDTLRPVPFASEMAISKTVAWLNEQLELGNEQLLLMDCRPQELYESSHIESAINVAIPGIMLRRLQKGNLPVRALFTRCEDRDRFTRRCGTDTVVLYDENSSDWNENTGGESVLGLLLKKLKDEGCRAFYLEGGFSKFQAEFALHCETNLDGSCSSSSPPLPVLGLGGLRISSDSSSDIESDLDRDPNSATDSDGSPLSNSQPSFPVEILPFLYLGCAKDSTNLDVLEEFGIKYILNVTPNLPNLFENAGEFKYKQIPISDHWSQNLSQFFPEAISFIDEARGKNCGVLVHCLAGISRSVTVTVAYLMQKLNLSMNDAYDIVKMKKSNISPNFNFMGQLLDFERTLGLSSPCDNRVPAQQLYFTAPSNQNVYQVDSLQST
Sequence of Protein Rev (P04618 whole entry): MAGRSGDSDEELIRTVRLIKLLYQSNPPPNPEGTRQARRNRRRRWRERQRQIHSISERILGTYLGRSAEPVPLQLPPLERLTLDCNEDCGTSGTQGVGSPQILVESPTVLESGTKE

O=C(O)CCN1C(=O)/C(=C2\C(=O)N(Cc3ccccc3Cl)c3ccccc32)SC1=S
IC50 [1]: 9.81 µM (active)
IC50 [2]: > 100 µM (not active)
IC50 [3]: 1.91 µM (active)
IC50 [4]: 3.06 µM (active)
IC50 [5]: 3.2 µM (active)
IC50 [6]: 30.9 µM (active)
IC50 [7]: < 1.23 µM (inactive)
IC50 [8]: 2.88 µM (active)
IC50 [9]: > 50 µM (inactive)
IC50 [10]: 2.03 µM (active)
IC50 [11]: 0.549 µM (active)

Nc1ccc2nonc2c1[N+](=O)[O-]
IC50 [12]: 0.69 µM (active)
AC50 [13]: 7.95 µM (active)
AC50 [14]: 8.03 µM (active)
AC50 [15]: 7.99 µM (active)
IC50 [16]: 0.248 µM (active)

O=C(c1cnccn1)N(Cc1cccs1)C1(C(=O)NC2CCCCC2)CCCCC1
EC50 [17]: > 32 µM (inactive)
IC50 [18]: > 32 µM (inactive)
IC50 [19]: > 32 µM (inactive)
EC50 [20]: 0.444 µM (active)
EC50 [21]: 0.141 µM (active)
EC50 [22]: > 32 µM (inactive)
IC50 [23]: > 32 µM (inactive)

CCOC(=O)c1cc(C)nc(O)c1C#N
AC50 [24]: 12.3 µM (active)
